In ChEMBL document CHEMBL3137667, “[Drug-induced liver injury; fourteenth updated edition of the bibliographic database of liver injuries and related drugs]” (Gastroenterol Clin Biol, 2004):

Experiments:
[1] = Highest frequency of moderate liver toxicity observed during clinical trials, expressed as a percentage. [column '% BIOL' in source]; conditions: human
[2] = Highest frequency of acute liver toxicity observed during clinical trials, expressed as a percentage. [column '% AIGUE' in source]; conditions: human
[3] = Presence of at least one case with successful reintroduction. [column 'REINT' in source]; conditions: human
[4] = Comments (NB not yet translated). [column 'COMMENTAIRES' in source]; conditions: human
[5] = Times to onset, minimal and maximal, observed in the indexed observations. [column 'DELAI' in source]; conditions: human
[6] = human, serum
[7] = human
[8] = human; remark: listed apart in the source
[9] = human; remark: listed apart in the source
[10] = human, serum, 4383 h
[11] = human; remark: listed apart in the source
[12] = human; remark: listed apart in the source
[13] = human; remark: listed apart in the source
[14] = human; remark: listed apart in the source
[15] = human; remark: listed apart in the source
[16] = human; remark: listed apart in the source
[17] = human, serum; remark: listed apart in the source
[18] = Proposed mechanism(s) of liver damage. [column 'MEC' in source]; conditions: human
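Wherever Hepatotoxicity (association with vascular disease) is given: count of indexed literature references reporting vascular liver injury in humans, e.g. peliosis hepatitis, hepatic veno-occlusive disease or Budd-Chiari syndrome.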
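Wherever Hepatotoxicity (benign tumour) is given: value is a count of indexed literature references citing a benign tumour confirmed by histopathology.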
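Wherever Hepatotoxicity (choleostasis) is given: human cholestatic liver injury, shown by histopathology or by peak ALT or AST elevation over alkaline phosphatase ratio below 2, value counts indexed literature reports.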
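Wherever Hepatotoxicity (chronic liver disease) is given: chronic liver injury confirmed by histopathology or persistently raised serum aminotransferase activity beyond 6 months, value given as the count of indexed literature references.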
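Wherever Hepatotoxicity (cirrhosis) is given: value is a count of indexed literature references reporting cirrhosis confirmed by histopathology.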
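Wherever Hepatotoxicity (cytolytic) is given: human cytolytic liver injury, shown by histopathology or by a ratio above 5 of peak ALT or AST elevation to alkaline phosphatase elevation, value counts indexed references.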
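Wherever Hepatotoxicity (granulomatous hepatitis) is given: value is a count of indexed literature references reporting granulomatous liver disease confirmed by histopathology.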
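Wherever Hepatotoxicity (malignant tumour) is given: malignant tumour confirmed by histopathology, value gives the count of indexed literature references reporting it.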
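Wherever Hepatotoxicity (severe hepatitis) is given: human clinical data: severe hepatitis, meaning potentially life-threatening liver failure or clinically observed cases, the value counts how many indexed literature references report it.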
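Wherever Hepatotoxicity (steatosis) is given: steatosis confirmed by histopathology, value is the count of indexed references.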

| Compound | Hepatotoxicity (moderate) ([1]; Liver) [%] | Hepatotoxicity (acute) ([2]; Liver) [%] | Hepatotoxicity (successful reintroduction) [3] | Hepatotoxicity (comment) [4] | Hepatotoxicity (time to onset) [5] | Hepatotoxicity (moderate) [6] | Hepatotoxicity (severe hepatitis) ([9]; Liver) | Hepatotoxicity (chronic liver disease) [10] | Hepatotoxicity (cirrhosis) [11] | Hepatotoxicity (association with vascular disease) [13] | Hepatotoxicity (steatosis) [14] | Hepatotoxicity (malignant tumour) [15] | Hepatotoxicity (benign tumour) [16] | Hepatotoxicity (moderate) [1] [%] | Hepatotoxicity (acute) [2] [%] | Hepatotoxicity (acute) [17] | Hepatotoxicity (cytolytic) [7] | Hepatotoxicity (choleostasis) [8] | Hepatotoxicity (severe hepatitis) [9] | Hepatotoxicity (granulomatous hepatitis) [12] | further results |
| --- | --- | --- | --- | --- | --- | --- | --- | --- | --- | --- | --- | --- | --- | --- | --- | --- | --- | --- | --- | --- | --- |
| CC(C)(C)NC(=O)[C@@H]1C[C@@H]2CCCC[C@@H]2CN1C[C@@H](O)[C@H](Cc1ccccc1)NC(=O)[C@H](CC(N)=O)NC(=O)c1ccc2ccccc2n1 | 44 | 12.5 | yes | REACTIVATION_HVB | < 1 day - 6 months | 7 | 0 | 0 | 0 | 0 | 0 | 0 | 0 | – | – | – | – | – | – | – | Hepatotoxicity (cytolytic) ([7]; Liver): 10; Hepatotoxicity (choleostasis) ([8]; Liver): 0; Hepatotoxicity (granulomatous hepatitis) ([12]; Liver): 0 |
| Nc1cc([As]2[As](c3ccc(O)c(N)c3)[As](c3ccc(O)c(N)c3)[As](c3ccc(O)c(N)c3)[As]2c2ccc(O)c(N)c2)ccc1O.Nc1cc([As]2[As](c3ccc(O)c(N)c3)[As]2c2ccc(O)c(N)c2)ccc1O (configuration not stated) | – | – | yes | CHOLESTASE_PROLONGEE CHOLANGITE | 1 week - 1 year | 0 | – | 0 | 0 | 0 | 0 | 0 | 0 | 0 | 0 | 6 | 1 | 1 | 1 | 0 | – |
| CC(C)(C)NC(=O)[C@@H]1CN(Cc2cccnc2)CCN1C[C@@H](O)C[C@@H](Cc1ccccc1)C(=O)N[C@H]1c2ccccc2C[C@H]1O.O | 8 | 9.1 | yes | REACTIVATION_HVB/HVC LITHIASE | 5 hours - 19 months | 5 | 4 | 0 | 0 | 0 | 3 | 0 | 0 | – | – | 12 | 8 | 0 | – | 0 | – |
| CC(=O)CC(c1ccc([N+](=O)[O-])cc1)c1c(O)c2ccccc2oc1=O (configuration not stated) [ACENOCOUMAROL] | – | – | yes | RC/PHENPROCOUMON CHOLESTASE_PROLONGEE | 2 days - 5 years | 2 | – | 1 | 0 | 0 | 0 | 0 | 0 | 0 | 0 | 8 | 3 | 6 | 0 | 0 | – |
| CCN(CCCc1ccccc1)CCCc1ccccc1 [ALVERINE] | – | – | yes | AC_ANTI-N | 4 days - 40 days | 0 | – | 0 | 0 | 0 | 0 | 0 | 0 | 0 | 0 | 2 | 2 | 0 | 0 | 0 | – |
| CC(NC(C)(C)C)C(=O)c1cccc(Cl)c1 (configuration not stated) [BUPROPION] | 0 | 0 | yes | PERICHOLANGITE | 4 days - 80 days | 1 | 1 | 0 | 0 | 0 | 0 | 0 | 0 | – | – | 4 | 4 | 2 | – | 0 | – |
| O=C(N[C@H](CO)[C@H](O)c1ccc([N+](=O)[O-])cc1)C(Cl)Cl [CHLORAMPHENICOL] | – | – | yes | RC/COTRIMOXAZOLE | 1 month - 2 months | 1 | – | 0 | 0 | 0 | 1 | 0 | 0 | 46.2 | 7.7 | 14 | 2 | 1 | 0 | 0 | – |
| C[C@]12CC[C@@H]3c4ccc(OC(=O)N(CCCl)CCCl)cc4CC[C@H]3[C@@H]1CC[C@@H]2O [ESTRAMUSTINE] | – | – | yes | NASH | 1 month | 3 | – | 1 | 0 | 0 | 1 | 0 | 0 | 2 | 2 | 2 | 1 | 0 | 0 | 0 | – |
| CC(C)(C)c1ccc(C(O)CCCN2CCC(C(O)(c3ccccc3)c3ccccc3)CC2)cc1 (configuration not stated) [TERFENADINE] | 19.2 | 0 | yes | DESTRUCTION_VB | 4 weeks - 5 months | 1 | 0 | 0 | 0 | 0 | 0 | 0 | 0 | – | – | – | 2 | 2 | – | 0 | – |
| Cn1c(=O)c2[nH]cnc2n(C)c1=O.O [THEOPHYLLINE] | – | – | yes | – | 4 days - 11 days | 2 | – | 0 | 0 | 0 | 0 | 0 | 0 | 55.6 | 0 | 1 | 1 | 0 | 0 | 0 | Hepatotoxicity (mechanism) [18]: Dose-dependant |
| CCCC(C)C1(CC)C(=O)NC(=S)NC1=O (configuration not stated) [THIOPENTAL] | – | – | yes | – | 1 day - 5 days | 4 | – | 0 | 0 | 0 | 1 | 0 | 0 | 87 | 0 | 2 | 1 | 0 | 0 | 0 | Hepatotoxicity (mechanism) [18]: Dose-dependant |
| INTERFERON GAMMA-1A | – | – | yes | – | 6 days - 3 months | 50 | – | 0 | 0 | 0 | 0 | 0 | 0 | 65 | 0 | 3 | 2 | 0 | 1 | 0 | Hepatotoxicity (mechanism) [18]: Dose-dependant |
